The target of one data set is T1, human NOD2 (Homo sapiens, UniProt Q9HC29).
T1 construct: host or cells: HEK-Blue NOD2 cells (derived from HEK293)
The data set can be described thus: HEK-Blue NOD2 NF-κB SEAP reporter assay (NOD2 agonistic activity). Type of data set: cell-based. Here is the method:
The synthesized desmuramylpeptides were evaluated for their dose-dependent NOD2 activity using the commercially available HEK-Blue NOD2 reporter cell line. This cell line is derived from HEK293 cells by cotransfection of human NOD2 and an NF-κB-inducible secreted embryonic alkaline phosphatase (SEAP). Activation of NOD2 and subsequently of NF-κB leads to the expression and secretion of SEAP, the level of which can be quantified colorimetrically. […]
two passages, 200 µg/mL Zeocin (Invivogen) was added to the medium every other passage to maintain selection pressure. The cells were incubated in a humidified atmosphere at 37 °C and 5% CO 2. […]
Aldrich), and 100 µg/mL streptomycin (Sigma -Aldrich).
The tested compounds were dissolved in DMSO and further di luted in culture medium to the desired final concentrations, such that the final DMSO concentration never exceeded 0.1%. […]
4.6 NOD1/NOD2-NF-kB reporter assay
HEK-Blue NOD2 or NOD1 cells were seeded (25,000 cells/well) in 96 -well plates in 100 µL HEK-Blue detection medium (Invivogen, San Diego, CA, USA) and treated with compounds ( 2 µM for fixed […]
the corresponding vehicle (0.1% DMSO). After 18 h of incubation (37 °C, 5% CO2), secreted embryonic alkaline phosphatase (SEAP) activity was determined spectrophotometrically as absorbance at 630 nm (BioTek Synergy microplate reader; Winooski, VT, USA). EC50 values were calculated using Prism software (version 9; GraphPad Software, CA, USA). The experiments were run in duplicates and repeated as at least three independent biological replicates. […]

The test system of data set [1] is K562 cancer cells. Further details: method as in PMID 34043358. Particulars: cited from earlier work.
The subject of a further data set is PBMCs. The data set can be described thus: Cytokine release from peripheral blood mononuclear cells. As to conditions: human PBMCs, 18 h; NOD2 agonists 1 μM; LPS 10 ng/mL; IFN-γ 200 U/mL. Format: cell-based. The text has this: Encouraged by the potent NOD2 activity of 40, we preliminarily evaluated its immunostimulatory potential in human primary peripheral blood mononuclear cells (PBMCs). Specifically, we first investigated the ability of 40 to induce cytokine production in PBMCs. While activation of NOD2 alone is sufficient to elicit cytokine responses, these responses are usually of low intensity. However, NOD2 agonists can act in synergy with ligands of other innate immune receptors and proinflammatory cytokines to induce considerably stronger responses. We were particularly intrigued by the synergistic interactions between NOD2, TLR4, and IFN-γ. The synergy between NOD2 agonists and TLR4 agonists in terms of cytokine secretion, including IFN-γ, is well-established.[29],[30] Similarly, IFN-γ has previously been reported to augment the MDP-mediated activation and cytokine production by dendritic cells and macrophages.[31],[32]
Figure 2 Synergistic effects of 40 with LPS and IFN-γ on induction of cytokine production from PBMCs. Cytokine concentrations were measured after 18 h of stimulation with NOD2 agonists (1 μM) in the presence or absence of LPS (10 ng/mL) and IFN-γ (200 U/mL) or the corresponding vehicle (0.1% DMSO; NT). Data are expressed as mean ± SEM of three independent experiments. Statistical significance was determined by one-way ANOVA followed by Bonferroni’s multiple-comparisons test; *, p < 0.05, **, p < 0.01, ***, p < 0.001 versus vehicle-treated control; ##, p < 0.01, ###, p < 0.001 versus 40 or LPS alone.
Figure S5. The effect of 40 on the production of cytokines from human PBMCs is NOD2 -dependent. PBMCs were pre-incubated for 1 h in the presence or absence of the NOD2 antagonist SG84 (10 µM), before the addition of 40 (1 µM). Cytokine concentrations in supernatants were measured after 18 h stimulation.
Data are expressed as mean s ± SEM of 3 independent experiments. Statistical significance was determined by one-way ANOVA followed by Bonferroni’s multiple comparisons test; **, p < 0.01, ***, p < 0.001. […]
4.9 Cytokine release from peripheral blood mononuclear cells
Peripheral blood mononuclear cells were seeded ( 500,000 cells/well) in 24-well plates in 500 µL growth medium and treated with MDP (1 µM), 2 (1 µM), or 40 (1 µM), in the presence or absence of LPS (10 ng/mL) or IFN-γ (200 U/mL), or the corresponding vehicle (0.1% DMSO). In some wells, PBMCs were pre-treated for 1 h with the NOD2 antagonist SG84 (10 µM), before the addition of 40 (1 µM). Cell-free supernatants were collected after 18 h of incubation (37 °C, 5% CO2) and stored at -80 °C until tested.
Cytokine production was determined with BD Cytometric Bead Array human inflammatory cytokines kit (BD Bioscience) on an Attune NxT flow cytometer (Thermo Fisher Scientific, Waltham, MA, USA). Standard curves were generated using recombinant cytokines contained in the kit. The data were analyzed using the FlowJo (Tree Star, Inc., Ashland, OR, USA) and Prism (GraphPad, San Diego, CA, USA) software.

The test system of data set [2] is K562 cancer cells. As to the kind of experiment: PBMC cytotoxicity against K562 cancer cells. Format: cell-based. Particulars: 1 μM + LPS 1 μg/mL or IFN-γ 200 U/mL, 18 h; 40:1, 4 h. Here is the method: In addition, we also investigated the ability of 40, both alone and in combination with LPS and IFN-γ, to induce direct and nonspecific cytolytic activity of PBMCs against cancer cells. For this purpose, we used a functional cytotoxicity assay based on the coincubation of preactivated PBMCs and fluorescently labeled K562 cancer cells.[33] Among the heterogeneous subpopulations of PBMCs, natural killer (NK) cells and, to a lesser extent, monocytes represent the main effector cell types in this assay. NK cells play an essential role in tumor and viral immunosurveillance, both through direct cytolytic destruction of aberrant cells and by facilitating the recruitment and activation of other immune cells through the secretion of cytokines.[34] In addition to their well-established role in cancer immunotherapy, NK cells thus also provide an attractive target in the development of vaccine adjuvants, particularly when Th1 cellular immune responses are preferred.[35] Other cell populations, however, may contribute to the magnitude of NK cell-mediated responses via cytokine secretion. To account for the contribution of these accessory cells and to more accurately represent in vivo conditions, the entire PBMC population was used instead of isolated NK cells.
Figure 3 2 and 40 synergize with LPS and IFN-γ to induce the cytotoxicity of PBMCs against K562 cancer cells. Following 18 h of stimulation of PBMCs with 2 (1 μM) or 40 (1 μM) in the presence or absence of LPS (1 μg/mL) and IFN-γ (200 U/mL) or the corresponding vehicle (0.1% DMSO; NT), K562 cells were added in a 40:1 effector to target cell ratio. Cytotoxicity was determined after 4 h of coincubation. IL-2 (200 U/mL) was used as the positive control. Data are shown as relative activities to vehicle-treated control (0.1% DMSO) and are the means ± SEMs of duplicates of two independent experiments. Statistical significance was determined by one-way ANOVA followed by Dunnet’s multiple-comparisons test; **, p < 0.01, ***, p < 0.001. […]
4.8 Peripheral blood mononuclear cell cytotoxicity
The PBMC cytotoxicity assays using K562 cells were performed as described previously, with some modifications.2 PBMCs were seeded (400,000 cells/well) in duplicates in 96 -well U-bottom plates and treated with 2 (1 µM) or 40 (1 µM), in the presence or absence of LPS (1 µg/mL) or IFN-γ (200 U/mL), IL-2 (200 U/mL), or the corresponding vehicle (0.1% DMSO) for 18 h. K562 were stained with carboxyfluorescein succinimidyl ester (CFSE, Invitrogen, Carlsbad, CA, USA), washed twice with complete medium, and added (10,000 cells/well) to the pre-treated PBMCs for a final effector cell to target tumor cell ratio of 40:1. After a 4 h coincubation (37 °C, 5% CO2), cells were stained with Sytox Blue dead cell stain (Invitrogen) and analyzed using an Attune NxT flow cytometer (Thermo Fisher Scientific, Waltham, MA, USA) and FlowJo software (Tree Star, Inc., Ashland, OR, USA). Cells that were positive for both CFSE and Sytox Blue were defined as dead K562 cells. PBMCs alone and CFSE-labeled K562 cells alone were also treated with the compounds at the same concentrations and stained with Sytox Blue to exclude any direct cytotoxicity of the compounds towards the PBMCs and cancer cells.
4.9 Cytokine release from peripheral blood mononuclear cells […]

Where [3] appears, read: HEK-Blue NOD2 cells, 18 h, means ± SEMs of at least three independent experiments, 8 or 16 concentrations (0.1 nM to 20 μM).

T1 sequence (Q9HC29 whole entry): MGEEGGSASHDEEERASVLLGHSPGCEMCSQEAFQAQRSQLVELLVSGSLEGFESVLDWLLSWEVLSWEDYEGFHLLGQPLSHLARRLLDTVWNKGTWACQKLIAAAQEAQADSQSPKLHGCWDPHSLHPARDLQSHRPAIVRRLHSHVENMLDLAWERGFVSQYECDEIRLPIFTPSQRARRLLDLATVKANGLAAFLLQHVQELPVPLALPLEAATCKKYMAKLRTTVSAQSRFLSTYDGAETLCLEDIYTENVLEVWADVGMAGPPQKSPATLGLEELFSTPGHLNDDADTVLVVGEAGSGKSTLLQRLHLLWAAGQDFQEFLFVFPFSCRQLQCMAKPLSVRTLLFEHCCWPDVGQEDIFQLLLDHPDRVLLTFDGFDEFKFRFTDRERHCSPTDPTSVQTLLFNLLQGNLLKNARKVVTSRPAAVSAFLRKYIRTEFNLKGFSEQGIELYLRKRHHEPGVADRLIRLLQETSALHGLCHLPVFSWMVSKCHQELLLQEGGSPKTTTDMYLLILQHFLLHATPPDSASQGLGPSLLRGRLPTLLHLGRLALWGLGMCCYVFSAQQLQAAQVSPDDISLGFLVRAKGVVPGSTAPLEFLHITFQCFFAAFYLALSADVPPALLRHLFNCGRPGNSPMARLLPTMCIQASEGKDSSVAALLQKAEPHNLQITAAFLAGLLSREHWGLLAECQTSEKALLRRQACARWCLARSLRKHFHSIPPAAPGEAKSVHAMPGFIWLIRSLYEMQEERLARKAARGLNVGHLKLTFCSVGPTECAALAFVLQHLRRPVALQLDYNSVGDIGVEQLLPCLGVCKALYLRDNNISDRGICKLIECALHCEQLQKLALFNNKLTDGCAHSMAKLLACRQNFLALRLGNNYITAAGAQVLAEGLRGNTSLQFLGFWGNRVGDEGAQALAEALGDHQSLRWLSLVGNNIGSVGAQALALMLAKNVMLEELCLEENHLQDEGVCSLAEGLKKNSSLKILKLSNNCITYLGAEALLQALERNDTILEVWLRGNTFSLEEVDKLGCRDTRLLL

Take `CCOC(=O)CC[C@@H](NC(=O)[C@@H](NC(=O)CNC(=O)/C=C/c1ccc2c(c1)OCO2)C(C)C)C(=O)OCC` [Compound 29]: the concentration giving a half-maximal response (EC50) on human NOD2 (HEK-Blue NOD2 cells) was 2670 nM; on human NOD2 (setting [3]), 2670 ± 357 nM. In addition, the “reduction in potency relative to 1” value on human NOD2 (NOD2 EC50 versus compound 1) was 30 fold.

With `CCOC(=O)CC[C@@H](NC(=O)[C@@H](NC(=O)CNC(=O)c1nc(-c2ccccc2)oc1C)C(C)C)C(=O)OCC` [Compound 34], the EC50 on human NOD2 (HEK-Blue NOD2 cells) came out at 2620 nM; at human NOD2 (setting [3]) it was 2620 ± 209 nM.

With `CCOC(=O)CC[C@@H](NC(=O)[C@@H](NC(=O)CNC(=O)/C=C/c1ccc(O)c(OC)c1)C(C)C)C(=O)OCC` [Compound 1], the “induction of cytotoxic activity of PBMCs (previous observations)” value in the data set with K562 cancer cells [1] was “failed to induce”.

For the molecule “lipopolysaccharide [LPS, reference compound]”, in the data set with PBMCs, the “production of IL-1β, IL-6, IL-8 and TNF-α, stimulant alone” value (shortened to “production of IL-1β”) is “strong increase”.

Regarding `CC(=O)NC1C(O)OC(CO)C(O)C1OC(C)C(=O)NC(C)C(=O)NC(CCC(=O)O)C(N)=O` (stereo not drawn) [MDP, muramyl dipeptide, reference compound], the concentration giving a half-maximal response (EC50) on human NOD2 (setting [3]) was found to be 203 ± 12 nM. Moreover, the “production of IL-1β” value in the data set with PBMCs is given as “modest production”.

Turning to `CCOC(=O)CC[C@@H](NC(=O)[C@@H](NC(=O)CNC(=O)c1cc2ccccc2o1)C(C)C)C(=O)OCC` [Compound 30], the concentration for a half-maximal effect (EC50) stood at 4340 nM on human NOD2 (HEK-Blue NOD2 cells) and 4340 ± 468 nM at human NOD2 (setting [3]).

For the molecule `CCOC(=O)CC[C@@H](NC(=O)[C@@H](NC(=O)CNC(=O)/C=C/c1ccc(O)c(OC)c1)C12CC3CC(CC(C3)C1)C2)C(=O)OCC` [Compound 16], at human NOD2 (setting [3]), the EC50 was over 10000 nM.

In the case of `CCOC(=O)CC[C@@H](NC(=O)[C@@H](NC(=O)CNC(=O)c1cc2cc(Br)ccc2o1)C(C)C)C(=O)OCC` [Compound 32], the EC50 at human NOD2 (setting [3]) turned out to be 316 ± 30 nM.

Consider `CCOC(=O)CC[C@@H](NC(=O)[C@@H](NC(=O)CNC(=O)c1cc2cc([N+](=O)[O-])ccc2o1)C(C)C)C(=O)OCC` [Compound 33], for which the EC50 at human NOD2 (setting [3]) was determined as 760 ± 84 nM.

For the molecule `CCOC(=O)CC[C@@H](NC(=O)[C@H](Cc1ccncc1)NC(=O)CNC(=O)/C=C/c1ccc(O)c(OC)c1)C(=O)OCC` [Compound 15], on human NOD2 (20 μM, HEK-Blue NOD2 cells), the “NOD2 agonistic activity at the highest concentration tested” value is on record as “only minor NOD2 agonistic activity”. For the same molecule, the half-maximal effective concentration (EC50) on human NOD2 (setting [3]) was over 10000 nM.

Regarding `COc1cc(/C=C/C(=O)NCC(=O)N[C@H](C(=O)N[C@H](CCC(=O)OC2CCCC2)C(=O)OC2CCCC2)C(C)C)ccc1O` [Compound 2], the “production of IL-1β” value in the data set on PBMCs is recorded as “modest production”. The “LPS- and IFN-γ-induced cytotoxic activity of PBMCs against K562, costimulation” value in the data set on K562 cancer cells [2] was “significantly enhanced”. The “induction of cytotoxic activity of PBMCs (previous observations)” value in the data set with K562 cancer cells [1] was “failed to induce”.

Regarding `COc1cc(/C=C/C(=O)NCC(=O)N[C@H](C(=O)N[C@H](CCC(=O)OC2CCCC2)C(=O)OC2CCCC2)C(C)C)ccc1OC(=O)CC12CC3CC(CC(C3)C1)C2` [Compound 41], the EC50 at human NOD2 (setting [3]) is 44 ± 9 nM.

For the molecule `CCOC(=O)CC[C@@H](NC(=O)[C@H](CCc1ccccc1)NC(=O)CNC(=O)/C=C/c1ccc(O)c(OC)c1)C(=O)OCC` [Compound 17], at human NOD2 (setting [3]), the EC50 is 420 ± 41 nM.

With `CCOC(=O)CC[C@@H](NC(=O)[C@@H](NC(=O)CNC(=O)c1cc2ccc(Br)cc2o1)C(C)C)C(=O)OCC` [Compound 31], the values for the EC50 on human NOD2 (HEK-Blue NOD2 cells) and at human NOD2 (setting [3]) were 1930 nM and 1930 ± 168 nM, respectively.

B1: interferon-γ (protein, UniProt P01579 24-161, looked up)
Interferon gamma: QDPYVKEAENLKKYFNAGHSDVADNGTLFLGILKNWKEESDRKIMQSQIVSFYFKLFKNFKDDQSIQKSVETIKEDMNVKFFNSNKKKRDDFEKLTNYSVTDLNVQRKAIHELIQVMAELSPAAKTGKRKRSQMLFRG
notes: proinflammatory cytokine used as costimulus
Consider B1, for which the “production of IL-1β” value in the data set with PBMCs is “negligible cytokine secretion”.

The values are drawn from article PMC9377006, “Discovery of Desmuramylpeptide NOD2 Agonists with Single-Digit Nanomolar Potency” (ACS Medicinal Chemistry Letters, 2022).
